In US9708336B2, “Metallo-beta-lactamase inhibitors” (priority 2014, dated 2017):
Like-named read-outs stand apart in the source and are kept apart here.

Legend:
NDM-1 = NDM-1 (Klebsiella pneumoniae, UniProt C7C422); test: biochemical; type: biochemical; details: read-out: NDM-1 IC50
IMP-1 = IMP-1 (Serratia marcescens, UniProt P52699); test: biochemical; type: biochemical; details: read-out: IMP-1 IC50
VIM-1 = VIM-1 (Pseudomonas aeruginosa (strain ATCC 15692 / DSM 22644 / CIP 104116 / JCM 14847 / LMG 12228 / 1C / PRS 101 / PAO1), UniProt A0A0F7KYQ8); test: Enzyme activity: determination of IC50, fluorescence assay with CCF2-FA substrate (VIM-1); type: biochemical
[1] = test system: Escherichia coli expressing NDM-1 (CLB30005); test: Antibiotic potentiation activity: synergistic concentration (MITC95) with imipenem, OD600 growth; type: cell-based; details: for Escherichia coli expressing NDM-1 (CLB 30005) MITC95: concentration giving 95% inhibition of bacterial growth; for Escherichia coli MITC95: Escherichia coli expressing NDM-1 (CLB30005), 95% growth inhibition
Outline: (§1)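 Compound activity is tested with and without imipenem, which is present at 4 μg/ml (or 1 μg/ml) in the well. Bacteria in 1.1× CAMHB are incubated 22–24 h at 35 °C; absorbance gives the growth endpoint.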

[2] = test system: Klebsiella pneumoniae expressing VIM-1 (IHMA599644); test: as above; type: cell-based; details: for Klebsiella pneumoniae expressing VIM-1 (IHMA 599644) MITC95: concentration giving 95% inhibition of bacterial growth; for Klebsiella pneumoniae MITC95: Klebsiella pneumoniae expressing VIM-1 (IHMA599644), 95% growth inhibition
Outline: as §1

[3] = test system: Serratia marcescens expressing IMP-1 (CL5741); test: as above; type: cell-based; details: for Serratia marcescens expressing IMP-1 (CL5741) MITC95: concentration giving 95% inhibition of bacterial growth; for Serratia marcescens MITC95: Serratia marcescens expressing IMP-1 (CL5741), 95% growth inhibition
Outline: as §1

[4] = fluorescence assay with CCF2-FA substrate
[5] = fluorescence assay with CCF2-FA substrate, read-out: VIM-1 IC50
[6] = NDM-1 enzyme, CCF2-FA fluorescence assay
[7] = IMP-1 enzyme, CCF2-FA fluorescence assay
[8] = VIM-1 IC50, fluorescence assay with CCF2-FA substrate

IMP-1, sequence (P52699 whole entry, looked up): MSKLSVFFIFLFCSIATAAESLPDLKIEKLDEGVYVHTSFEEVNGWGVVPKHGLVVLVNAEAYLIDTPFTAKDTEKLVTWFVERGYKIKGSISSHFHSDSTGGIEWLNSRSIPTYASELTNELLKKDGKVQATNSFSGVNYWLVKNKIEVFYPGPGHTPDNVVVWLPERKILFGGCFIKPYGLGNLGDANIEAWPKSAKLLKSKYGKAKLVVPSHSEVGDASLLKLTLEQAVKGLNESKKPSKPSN
NDM-1, sequence (C7C422 whole entry, looked up, species assumed): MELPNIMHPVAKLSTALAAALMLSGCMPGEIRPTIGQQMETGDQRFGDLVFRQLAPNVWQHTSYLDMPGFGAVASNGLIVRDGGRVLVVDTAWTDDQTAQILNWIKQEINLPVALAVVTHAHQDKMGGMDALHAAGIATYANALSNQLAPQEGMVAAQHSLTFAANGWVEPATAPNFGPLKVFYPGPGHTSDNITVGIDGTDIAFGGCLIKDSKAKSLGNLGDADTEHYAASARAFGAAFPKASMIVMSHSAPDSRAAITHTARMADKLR

| Structure (SMILES) | IC50 (NDM-1; [4]) | IC50 (IMP-1; [4]) | IC50 (VIM-1; [5]) | Escherichia coli expressing NDM-1 (CLB 30005) MITC95 [1] | Klebsiella pneumoniae expressing VIM-1 (IHMA 599644) MITC95 [2] | Serratia marcescens expressing IMP-1 (CL5741) MITC95 [3] | IC50 (NDM-1; [6]) | IC50 (IMP-1; [7]) | IC50 (VIM-1; VIM-1 IC50, VIM-1 enzyme, CCF2-FA fluorescence assay) | Escherichia coli MITC95 [1] | Klebsiella pneumoniae MITC95 [2] | Serratia marcescens MITC95 [3] | IC50 (VIM-1; [8]) | IC50 (VIM-1; VIM-1 enzyme, CCF2-FA fluorescence assay, read-out: VIM-1 IC50) |
| --- | --- | --- | --- | --- | --- | --- | --- | --- | --- | --- | --- | --- | --- | --- |
| Cc1ccccc1-c1ccnc(S(N)(=O)=O)c1-c1nn[nH]n1 [Example 210, 3-(2H-tetrazol-5-yl)-4-(o-tolyl)pyridine-2-sulfonamide] | 0.0118 µM | 0.421 µM | 0.0255 µM | 0.5208 µM | 15.63 µM | 25 µM |  |  |  |  |  |  |  |  |
| NS(=O)(=O)c1cccc(-c2ccc(F)nc2)c1-c1nn[nH]n1 [Example 48, 3-(6-fluoropyridin-3-yl)-2-(2H-tetrazol-5-yl)benzenesulfonamide] | 0.0191 µM | 0.644 µM | 0.182 µM | 0.3906 µM | 66.67 µM | 33.33 µM |  |  |  |  |  |  |  |  |
| NS(=O)(=O)c1cccc(-c2ccc(C3(C(F)(F)F)OCCO3)nc2)c1-c1nn[nH]n1 [Example 22, 2-(2H-tetrazol-5-yl)-3-{6-[2-(trifluoromethyl)-1,3-dioxolan-2-yl]pyridin-3-yl}benzenesulfonamide] | 0.002 µM | 0.0318 µM | 0.0267 µM | 1.563 µM | 200 µM | 6.25 µM |  |  |  |  |  |  |  |  |
| CCOCc1ccc(-c2cccc(S(N)(=O)=O)c2-c2nnn[nH]2)cc1 [Example 397, 4′-(Ethoxymethyl)-2-(1H-tetrazol-5-yl)-[1,1′-biphenyl]-3-sulfonamide] |  |  |  |  |  |  | 0.00393 µM | 0.0373 µM | 0.246 µM | 3.906 µM | >200 µM | 9.375 µM |  |  |
| NS(=O)(=O)c1cccc(-c2cncc(F)c2)c1-c1nn[nH]n1 [Example 83, 3-(5-fluoropyridin-3-yl)-2-(2H-tetrazol-5-yl)benzenesulfonamide] | 0.00597 µM | 0.52 µM |  | 0.3906 µM | 25 µM | 50 µM |  |  |  |  |  |  | 0.0436 µM |  |
| NS(=O)(=O)c1cccc(C2=CCCOC2)c1-c1nn[nH]n1 [Example 63, 3-(5,6-dihydro-2H-pyran-3-yl)-2-(2H-tetrazol-5-yl)benzenesulfonamide] | 0.0489 µM | 1.56 µM | 1.32 µM | 0.7813 µM | 100 µM | 50 µM |  |  |  |  |  |  |  |  |
| NS(=O)(=O)c1nccc(-c2ccc(N3CCOCC3)nc2)c1-c1nn[nH]n1 [Example 208, 6-morpholino-3′-(2H-tetrazol-5-yl)-[3,4′-bipyridine]-2′-sulfonamide] | 0.0947 µM | 0.589 µM |  | 3.646 µM | >200 µM | 37.5 µM |  |  |  |  |  |  | 0.568 µM |  |
| N#CC1(c2ccc(-c3cccc(S(N)(=O)=O)c3-c3nnn[nH]3)cc2)CCOCC1 [Example 25, 4′-(4-cyanotetrahydro-2H-pyran-4-yl)-2-(1H-tetrazol-5-yl)biphenyl-3-sulfonamide] | < 0.000637 µM | 0.0036 µM | 0.0455 µM | 3.125 µM | >200 µM | 12.5 µM |  |  |  |  |  |  |  |  |
| NC(=O)c1ccc(-c2cccc(S(N)(=O)=O)c2-c2nn[nH]n2)cc1 [Example 15, 3′-sulfamoyl-2′-(2H-tetrazol-5-yl)biphenyl-4-carboxamide] | 0.00596 µM | 0.134 µM | 0.0623 µM | 0.3906 µM | 18.75 µM | 15.63 µM |  |  |  |  |  |  |  |  |
| NS(=O)(=O)c1nccc(-c2ccc3ncccc3c2)c1-c1nn[nH]n1 [Example 200, 4-(quinolin-6-yl)-3-(2H-tetrazol-5-yl)pyridine-2-sulfonamide] | 0.0302 µM | 0.963 µM | 0.0356 µM | 2.083 µM | 50 µM | 75 µM |  |  |  |  |  |  |  |  |
| NS(=O)(=O)c1cccc(-c2ccc3c(=O)nc[nH]c3c2)c1-c1nn[nH]n1 [Example 69, 3-(4-oxo-1,4-dihydroquinazolin-7-yl)-2-(2H-tetrazol-5-yl)benzenesulfonamide] | 0.00505 µM | 0.237 µM | 0.0264 µM | 0.7813 µM | 25 µM | 18.75 µM |  |  |  |  |  |  |  |  |
| NS(=O)(=O)c1cccc(-c2ccccc2O)c1-c1nn[nH]n1 [Example 326, 2′-hydroxy-2-(2H-tetrazol-5-yl)-[1,1′-biphenyl]-3-sulfonamide] |  |  |  |  |  |  | 0.00365 µM | 0.37 µM |  | 3.32 µM | 37.5 µM | 18.75 µM |  | 0.136 µM |
| N#CC1CC=C(c2cccc(S(N)(=O)=O)c2-c2nn[nH]n2)CC1 (stereo not drawn) [Example 64, 3-(4-cyanocyclohex-1-en-1-yl)-2-(2H-tetrazol-5-yl)benzenesulfonamide] | 0.0134 µM | 0.248 µM | 0.588 µM | 1.953 µM | 200 µM | 50 µM |  |  |  |  |  |  |  |  |
| NS(=O)(=O)c1cccc(-c2cccs2)c1-c1nn[nH]n1 [Example 20, 2-(2H-tetrazol-5-yl)-3-thiophen-2-ylbenzenesulfonamide] | 0.0204 µM | 0.331 µM | 0.362 µM | 1.823 µM | 166.7 µM | 18.75 µM |  |  |  |  |  |  |  |  |
| CCN(CC)C(=O)c1ccc(-c2cccc(S(N)(=O)=O)c2-c2nn[nH]n2)cc1 [Example 9, N,N-diethyl-3′-sulfamoyl-2′-(2H-tetrazol-5-yl)biphenyl-4-carboxamide] | 0.00148 µM | 0.0172 µM | 0.277 µM | 3.125 µM | >200 µM | 12.5 µM |  |  |  |  |  |  |  |  |
| CS(=O)(=O)N1CCC(c2cccc(S(N)(=O)=O)c2-c2nn[nH]n2)CC1 [Example 172, 3-(1-(methylsulfonyl)piperidin-4-yl)-2-(2H-tetrazol-5-yl)benzenesulfonamide] | 0.0165 µM | 0.72 µM | 0.421 µM | 4.688 µM | 100 µM | 18.75 µM |  |  |  |  |  |  |  |  |
| NC(=O)c1cccc(-c2ccnc(S(N)(=O)=O)c2-c2nn[nH]n2)c1 [Example 204, 3-(2-sulfamoyl-3-(2H-tetrazol-5-yl)pyridin-4-yl)benzamide] | 0.059 µM | 2.85 µM | 0.238 µM | 0.3906 µM | 12.5 µM | 37.5 µM |  |  |  |  |  |  |  |  |
